Results as given in patent US9303026B2, “Antiviral agents” (Biota Scientific Management Pty Ltd, priority 2000, dated 2016).

Assay: Cytotoxicity in uninfected treated cultures (CC50)
Type: cell-based
Details: human, uninfected MRC-5 human embryo lung cells; Table 7; concentration yielding 50% cytotoxicity, uninfected MRC-5 cells

CSc1nc2ccc(OCCC3CCN(c4ccc(C)nn4)CC3)cc2o1 [Compound 4, 6-{2-[1-(6-Methyl-3-pyridazinyl)-4-piperidinyl]ethoxy}-2-methylthiobenzoxazole]
CC50: > 1 µg/mL
